Like-named read-outs stand apart in the source and are kept apart here.
Experiments:
[1] = test system: NmuMG; experiment: cells; type: cell-based, mouse; details: read-out: IC50, NmuMG
In short: (§1)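 Live-cell esterase read-out: calcein AM added for 30 min at 37° C after 72 h compound exposure and a PBS wash. Dosing used a five-point 1:2 series. IC50 values are variable-slope logistic fits over at least six replicate experiments.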

[2] = test system: Hep3B; experiment: High-throughput calcein AM cytotoxicity assay, Hep3B; type: cell-based, human; details: Hep 3B cells, read-out: IC50, Hep 3B
From the text: (§2) Standard errors are depicted with error bars.

[3] = test system: A549; experiment: High-throughput calcein AM cytotoxicity assay, A549; type: cell-based, human; details: read-out: IC50, A549
From the text: as §2

[4] = test system: SK-OV-3; experiment: cells; type: cell-based, human
In short: as §1

[5] = test system: SF-268; experiment: cells; type: cell-based, human
In short: as §1

[6] = test system: NCI/ADR-RES; experiment: cells; type: cell-based, human
In short: as §1

[7] = test system: HCT-116; experiment: High-throughput calcein AM cytotoxicity assay, HCT-116; type: cell-based, human
From the text: as §2

[8] = test system: Du145; experiment: High-throughput calcein AM cytotoxicity assay, Du145; type: cell-based, human; details: read-out: IC50, Du145
From the text: as §2

[9] = test system: SKOV-3; experiment: Cell titer-glo cytotoxicity assay, SKOV-3; type: cell-based, human
From the text: FIG. 7 is a graphical summary of the results of the IC50 data from cytotoxicity assays. […] In the assay, live cells are quantified by measuring the luminescent signal resulting from the reaction between cellular ATP and luciferin to form oxyluciferin. The IC50 value for each compound represents at least four replicates of dose-response experiments conducted over six concentrations at two-fold dilutions.
The anticancer activities of ten panel analogues (3a-c,e,f and 4a-c,e,f) and digitoxin (1) were assessed using a high-throughput cytotoxicity assay on four human cancer cell lines, (FIG. 7) representing lung, colorectal, and ovarian carcinomas, as well as NCI/ADR-RES, a drug-resistant ovarian carcinoma line (For years, NCI/ADR-RES cells have been misidentified as drug-resistant MCF-7 breast adenocarcinoma cells, but recently this line has been shown definitively to be a drug-resistant line derived from OVCAR-8 ovarian adenocarcinoma cells. Liscovitch, M. et al., Cancer Lett. (2007) 245, 350-352.
All cell lines were maintained as previously reported (Langenhan, J. M. et al., Proc. Natl. Acad. Sci. (2005) 102, 12305-12310.) Cells were harvested by trypsinization using 0.25% trypsin and 0.1% EDTA and then counted in a Cellometer Auto T4 cell counter (Nexcelom, inc), before dilution for assay plating. Cell plating, compound handling and assay set up were performed as previously reported^1 except for the cells were plated in 50 μL volumes in 384 well clear bottom, tissue culture plates (Corning-Costar, Inc). Compounds were added from the 384-well compound stock plates at a 1:100 dilution using a Biomek FX liquid handler equipped with a 384 channel head (Beckman Coulter, Inc.). Cell titer-glo reagent (15 μL) (Promega Corporation, Inc.) was added and incubated for 10 min at room temperature with gentle agitation to lyse the cells. Each plate was read for luminescence. […] IC50 values were determined using XLFit 4.0 as previously reported (see Table 7).

[10] = NmuMG mouse mammary normal epithelial control line
[11] = SK-OV-3 cells, read-out: IC50, SK-OV-3
[12] = SF-268 cells, read-out: IC50, SF-268
[13] = HCT-116 cells, read-out: IC50, HCT-116
[14] = SKOV-3, Cell titer-glo, read-out: IC50
[15] = NCI/ADR-RES cells, read-out: IC50, NCI/ADR-RES

For CON([C@H]1CC[C@@]2(C)[C@H](CC[C@@H]3[C@@H]2CC[C@]2(C)[C@@H](C4=CC(=O)OC4)CC[C@]32O)C1)[C@@H]1O[C@H](CO)[C@@H](O)[C@H](O)[C@@H]1O [27β, D-mannoside], the IC50 [1, 10] was 1000 nM, the IC50 [2] was 400 nM and the IC50 ([3]; A549 cells) was 630 nM. It also gave an IC50 [4, 11] of 800 nM, an IC50 [5, 12] of 2200 nM and an IC50 ([6]; NCI/ADR-RES, 72 h, calcein AM, read-out: IC50) of 100 ± 10 nM. The IC50 [7, 13] was 800 nM and the IC50 ([8]; Du145 cells) was 1300 nM.
With C[C@H]1O[C@@H](O[C@H]2[C@@H](O)C[C@H](O[C@H]3[C@@H](O)C[C@H](O[C@H]4CC[C@@]5(C)[C@H](CC[C@@H]6[C@@H]5CC[C@]5(C)[C@@H](C7=CC(=O)OC7)CC[C@]65O)C4)O[C@@H]3C)O[C@@H]2C)C[C@H](O)[C@@H]1O [digitoxin] the IC50 ([1]; Mus musculus) was > 25000 nM, the IC50 ([2]; Homo sapiens, Hep3B) was 220 nM and the IC50 ([3]; Homo sapiens, A549, A549 cells) was 280 nM. The IC50 ([9]; Homo sapiens, SK-OV-3) was > 1000 nM, the IC50 ([4]; Homo sapiens, SK-OV-3, read-out: IC50, SK-OV-3) was 700 nM and the IC50 ([5]; Homo sapiens, SF-268, read-out: IC50, SF-268) was 1500 nM. It also gave an IC50 ([6]; Homo sapiens, NCI/ADR-RES, read-out: IC50, NCI/ADR-RES) of 220 nM, an IC50 ([7]; Homo sapiens, HCT-116, HCT-116 cells, read-out: IC50, HCT-116) of 170 nM and an IC50 ([8]; Homo sapiens, DU-145, Du145 cells) of 260 nM.
For CON([C@H]1CC[C@@]2(C)[C@H](CC[C@@H]3[C@@H]2CC[C@]2(C)[C@@H](C4=CC(=O)OC4)CC[C@]32O)C1)[C@H]1OC[C@H](O)[C@@H](O)[C@@H]1O [23β, L-xyloside], the IC50 [1, 10] was 57 nM, the IC50 [2] was 500 nM and the IC50 ([3]; A549 cells) was 79 nM. For the same compound, the IC50 [9, 14] was > 1000 nM, the IC50 [4, 11] was 220 nM and the IC50 [5, 12] was 490 nM. The IC50 [6, 15] was 138 nM, the IC50 [7, 13] was 100 nM and the IC50 ([8]; Du145 cells) was 620 nM.
Work on CON([C@H]1CC[C@@]2(C)[C@H](CC[C@@H]3[C@@H]2CC[C@]2(C)[C@@H](C4=CC(=O)OC4)CC[C@]32O)C1)[C@H]1OC[C@H](O)[C@H](O)[C@@H]1O [5β, L-riboside] yielded an IC50 [1, 10] of 31 nM, an IC50 [2] of 59 nM and an IC50 ([3]; A549 cells) of 33 nM. For the same compound, the IC50 [9, 14] was > 1000 nM, the IC50 [4, 11] was 45 nM and the IC50 [5, 12] was 230 nM. For the same compound, the IC50 [6, 15] was 32 nM, the IC50 ([7]; HCT-116, 72 h, calcein AM, read-out: IC50) was 18 ± 2 nM and the IC50 [7, 13] was 18 nM. The IC50 ([8]; Du145 cells) was 300 nM.

— patent publication US8507411B2, “Neoglycorandomization and digitoxin analogs” (priority 2004, dated 2013)
